{"source": "patent US20030215397A1", "about": "“Method of treatment of skin diseases related to microbial antigens in the skin” (priority 2002, published 2003)", "key": {"[1]": {"test_system": "streptococcal antigen (Dnase-B) in the skin", "test": "LSAB stain (antibody to Streptozyme) of a biopsy from the treated psoriatic lesion site", "assay_type": "in vivo, streptococci", "conditions": "person with severe psoriasis; pump spray with 40% by weight isopropyl myristate in alcohol carrier, on one lesion twice a day for two weeks; stain positive before treatment", "description": "Anti-body levels of many such patients, to streptococcal exoenzymes, deoxyribonuclease B, hyaluronidase, streptolysin O, and Streptozyme (a commercial product made from streptococci and containing Dnase-B as one of its constituents., a registered trademark of Carter-Wallace, Inc. and available from Wampole Labs, of Cranbury, N.J.), when measured will be found to be elevated prior to the treatment in accordance with this invention. The presence of these antigens are tested for by using a primary rabbit polyclonal antibody to, e.g., Streptozyme® with a linked streptavidin biotin alkaline phosphatase (“LSAB”) amplification stain, available from Dako, of Carpinteria, Calif. A prominent red stain on the biopsied skin indicates the presence of the antigens.\nA person, suffering from severe psoriasis came for treatment. Their psoriasis had become severe at a time about 20 years earlier when they had recurring sore throats and tonsilitis. Their sore throats had ceased, but their psoriasis persisted. A blood sample was taken to measure […] antibody level to Dnase-B, a streptococcal exoenzyme; It was determined that they were a streptococcal carrier. A 4 mm punch biopsy was taken at the same time from a psoriatic plaque on their posterior thigh. The biopsy was first exposed to an antibody to Streptozyme®, and stained using the LSAB test. […]"}, "psoriatic lesion": {"test_system": "psoriatic lesion", "test": "Topical treatment of a psoriatic lesion in a patient, appearance of the lesion", "assay_type": "in vivo, human", "conditions": "person with severe psoriasis; pump spray with 40% by weight isopropyl myristate in alcohol carrier, on one lesion twice a day for two weeks", "description": "A person, suffering from severe psoriasis came for treatment. Their psoriasis had become severe at a time about 20 years earlier when they had recurring sore throats and tonsilitis. Their sore throats had ceased, but their psoriasis persisted. A blood sample was taken to measure […] antibody level to Dnase-B, a streptococcal exoenzyme; It was determined that they were a streptococcal carrier. A 4 mm punch biopsy was taken at the same time from a psoriatic plaque on their posterior thigh. The biopsy was first exposed to an antibody to Streptozyme®, and stained using the LSAB test.\nThe patient was provided with a pump spray bottle containing 40% by weight of isopropyl myristate in an alcohol carrier, and instructed to spray the liquid on one particular lesion twice a day for two weeks. […] That site was biopsied and given the LSAB test, as before. The stain was negative, indicating the cleansing of the streptococcal antigen from the skin that had been treated with the 40% isopropyl myristate spray, and it was accompanied by a clearing of the lesion.\nThe composition in each case is liberally applied and the patient otherwise is permitted to carry out the usual hygiene, showering or bathing. […]"}}}
{"smiles": "CCCCCCCCCCCCCC(=O)OC(C)C", "note": "[isopropyl myristate]", "values": [{"measurement": "LSAB stain for streptococcal antigen in the biopsied treated site", "setting": "[1]", "value": "negative"}, {"measurement": "clearing of the sprayed lesion", "setting": "psoriatic lesion", "value": "substantially clear of the disease"}]}
